Reference: patent US20060241172A1, “Benzodioxane and benzodioxolane derivatives and uses thereof” (Wyeth, priority 2005, published 2006)
Structures can show the parent of a compound that is named as a salt.

Row | melting point [°C] | Structure (SMILES)
1 | 176 to 178 | NC[C@H]1COc2cc(Cl)cc(-c3ccccc3F)c2O1 (as salt: hydrochloride) [Compound I-59, (2S)-[6-Chloro-8-(2-fluoro-phenyl)-2,3-dihydro-benzo[1,4]dioxin-2-yl]-methylamine]
2 | > 250 | NCC1Oc2cc(Cl)cc(-c3cc(F)ccc3F)c2O1 (stereo not shown) (as salt: hydrochloride) [Compound I-99, [6-Chloro-4-(2,5-difluoro-phenyl)-benzo[1,3]dioxol-2-yl]-methylamine]
3 | 208 to 210 | NC[C@H]1COc2ccc(F)c(-c3ccccc3Cl)c2O1 (as salt: hydrochloride) [Compound I-71, (2S)-[8-(2-Chloro-phenyl)-7-fluoro-2,3-dihydro-benzo[1,4]dioxin-2-yl]-methylamine]
4 | 228 to 230 | COc1cccc(-c2cc(Cl)cc3c2OC(CN)O3)c1OC (stereo not shown) (as salt: hydrochloride) [Compound I-95, [6-Chloro-4-(2,3-dimethoxy-phenyl)-benzo[1,3]dioxol-2-yl]-methylamine]
5 | > 250 | NCC1Oc2cc(Cl)cc(-c3ccccc3F)c2O1 (stereo not shown) (as salt: salt) [Compound I-93, [6-Chloro-4-(2-fluoro-phenyl)-benzo[1,3]dioxol-2-yl]-methylamine]
6 | > 250 | NCC1Oc2cc(Cl)cc(-c3ccc(Cl)cc3Cl)c2O1 (stereo not shown) (as salt: hydrochloride) [Compound I-96, [6-Chloro-4-(2,4-dichloro-phenyl)-benzo[1,3]dioxol-2-yl]-methylamine]
7 | 225 to 227 | COc1ccc(OC)c(-c2cc(Cl)cc3c2OC(CN)O3)c1 (stereo not shown) (as salt: hydrochloride) [Compound I-100, [6-Chloro-4-(2,5-dimethoxy-phenyl)-benzo[1,3]dioxol-2-yl]-methylamine]
8 | 132 to 134 | CNCC1Oc2cc(F)cc(-c3ccccc3Cl)c2O1 (stereo not shown) (as salt: hydrochloride) [Compound I-87, 1-[4-(2-Chlorophenyl)-6-fluoro-1,3-benzodioxol-2-yl]-N-methylmethanamine]
9 | 224 to 225 | NC[C@H]1Oc2cc(F)cc(-c3c(Cl)cccc3Cl)c2O1 (as salt: hydrochloride) [Compound I-85, 1-[(2S)-4-(2,6-dichlorophenyl)-6-fluoro-1,3-benzodioxol-2-yl]methanamine]
10 | 182 to 183 | CCNCC1Oc2cc(F)cc(-c3ccccc3Cl)c2O1 (stereo not shown) (as salt: hydrochloride) [Compound I-88, N-{[4-(2-Chlorophenyl)-6-fluoro-1,3-benzodioxol-2-yl]methyl}ethanamine]
11 | 267 to 270 | NCC1Oc2cc(F)cc(-c3cccc(Cl)c3)c2O1 (stereo not shown) (as salt: hydrochloride) [Compound I-78, 1-[4-(3-Chlorophenyl)-6-fluoro-1,3-benzodioxol-2-yl]methanamine]
12 | 110 | Cc1cc(Cl)ccc1-c1cc(Cl)cc2c1O[C@@H](CN)CO2 (as salt: hydrochloride) [Compound I-65, (2S)-[6-Chloro-8-(4-chloro-2-methyl-phenyl)-2,3-dihydro-benzo[1,4]dioxin-2-yl]-methylamine]
13 | 105 | NC[C@H]1COc2ccc(Cl)c(-c3ccccc3Cl)c2O1 (as salt: hydrochloride) [Compound I-70, (2S)-[7-Chloro-8-(2-chloro-phenyl)-2,3-dihydro-benzo[1,4]dioxin-2-yl]-methylamine]
14 | 227 to 229 | NCC1Oc2cc(F)cc(-c3ccccc3)c2O1 (stereo not shown) (as salt: hydrochloride) [Compound I-77, 1-(6-Fluoro-4-phenyl-1,3-benzodioxol-2-yl)methanamine]
15 | 65 | NC[C@H]1COc2ccc(F)c(-c3ccc(Cl)cc3Cl)c2O1 (as salt: hydrochloride) [Compound I-75, ((2S)-7-Fluoro-8-(2,4-di-chloro-phenyl)-2,3-dihydrobenzo[b][1,4]dioxin-2-yl) methanamine]

Second part, the molecule before the results:

Row | Structure (SMILES) | melting point [°C]
16 | CNCC1COc2cccc(-c3cc(Cl)ccc3OC)c2O1 (stereo not shown) (as salt: fumarate) [Compound I-31, {[8-(5-Chloro-2-methoxyphenyl)-2,3-dihydro-1,4-benzodioxin-2-yl]methyl}methylamine] | 172 to 173
17 | COc1ccc(Cl)cc1-c1cccc2c1OC(CN)CO2 (stereo not shown) (as salt: fumarate) [Compound I-16, {[8-(5-Chloro-2-methoxyphenyl)-2,3-dihydro-1,4-benzodioxin-2-yl]methyl}amine] | 192 to 193
18 | Cc1cccc(C)c1-c1cccc2c1OC(CN)CO2 (stereo not shown) (as salt: fumarate) [Compound I-12, {[8-(2,6-Dimethylphenyl)-2,3-dihydro-1,4-benzodioxin-2-yl]methyl}amine] | 205 to 206
19 | CN(C)CC1COc2cccc(-c3ccccc3Cl)c2O1 (stereo not shown) (as salt: fumarate) [Compound I-38, {[8-(2-Chlorophenyl)-2,3-dihydro-1,4-benzodioxin-2-yl]methyl}dimethylamine] | 196 to 197
20 | Clc1ccc(-c2cccc3c2OC(CNC2CC2)CO3)c(Cl)c1 (stereo not shown) (as salt: fumarate) [Compound I-44, N-{[8-(2,4-Dichlorophenyl)-2,3-dihydro-1,4-benzodioxin-2-yl]methyl}cyclopropanamine] | 181 to 182
21 | C[C@]1(CN)COc2cccc(-c3ccccc3Cl)c2O1 (as salt: fumarate) [Compound I-49, {[(2S)-8-(2-Chlorophenyl)-2-methyl-2,3-dihydro-1,4-benzodioxin-2-yl]methyl}amine] | 149 to 152
22 | Cc1cccc(-c2cccc3c2OC(CN)CO3)c1C (stereo not shown) (as salt: fumarate) [Compound I-10, {[8-(2,3-Dimethylphenyl)-2,3-dihydro-1,4-benzodioxin-2-yl]methyl}amine] | 204 to 205
23 | NCC1COc2cccc(-c3cc(F)ccc3F)c2O1 (stereo not shown) (as salt: fumarate) [Compound I-15, {[8-(2,5-Difluorophenyl)-2,3-dihydro-1,4-benzodioxin-2-yl]methyl}amine] | 189 to 190
24 | NCC1COc2cccc(-c3ccccc3F)c2O1 (stereo not shown) (as salt: fumarate) [Compound I-2, {[8-(2-Fluorophenyl)-2,3-dihydro-1,4-benzodioxin-2-yl]methyl}amine] | 188 to 190
25 | Clc1ccc(-c2cccc3c2OC(CNC2CCC2)CO3)c(Cl)c1 (stereo not shown) (as salt: fumarate) [Compound I-45, N-{[8-(2,4-Dichlorophenyl)-2,3-dihydro-1,4-benzodioxin-2-yl]methyl}cyclobutanamine] | 204 to 205
26 | COc1ccccc1-c1cccc2c1OC(CN)CO2 (stereo not shown) (as salt: fumarate) [Compound I-5, {[8-(2-Methoxyphenyl)-2,3-dihydro-1,4-benzodioxin-2-yl]methyl}amine] | 186 to 187
27 | NCC1COc2cccc(-c3ccc(F)cc3F)c2O1 (stereo not shown) (as salt: fumarate) [Compound I-14, {[8-(2,4-Difluorophenyl)-2,3-dihydro-1,4-benzodioxin-2-yl]methyl}amine] | 183 to 184
28 | NC[C@H]1COc2cccc(-c3ccccc3Cl)c2O1 (as salt: fumarate) [Compound I-56, 1-[(2S)-8-(2-CHLOROPHENYL)-2,3-DIHYDRO-1,4-BENZODIOXIN-2-YL]METHANAMINE] | 200 to 201
